Source: US10610520B2, “Heterocyclic compound” (Takeda Pharmaceutical Company Limited, priority 2016, dated 2020)

Target: T1, His-hMAGL (recombinant polyhistidine tagged human MAGL protein) (Homo sapiens, UniProt Q99685)
T1 construct: made in house; host or cells: E. coli BL21(DE3)
T1 sequence (Q99685 1-303): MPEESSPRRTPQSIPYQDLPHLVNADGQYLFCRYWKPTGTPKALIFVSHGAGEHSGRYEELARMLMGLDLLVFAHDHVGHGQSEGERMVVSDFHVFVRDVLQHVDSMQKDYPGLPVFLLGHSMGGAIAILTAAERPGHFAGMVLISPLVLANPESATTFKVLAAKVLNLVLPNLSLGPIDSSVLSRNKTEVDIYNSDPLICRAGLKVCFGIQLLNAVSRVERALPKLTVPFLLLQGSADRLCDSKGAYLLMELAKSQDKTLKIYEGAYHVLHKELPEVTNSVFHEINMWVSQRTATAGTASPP
Experiment: Measurement of MAGL inhibitory activity (arachidonic acid production from 2-arachidonylglycerol, RapidFire-mass spectrometry)
Format: biochemical
Settings: MAGL inhibitory rate, test compound 10 μM, 60 min preincubation, 2-arachidonylglycerol substrate
How it was run: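 Arachidonic acid formed was quantified by online solid-phase extraction and triple-quadrupole MS in negative SRM mode against a d8 internal standard. Reaction: recombinant His-hMAGL (7.5 ng/mL, pH 7.5 Tris buffer with Triton X-100 and BSA) plus 2-AG (5 μL of 150 μM stock) for 10 min at room temperature, quenched with 2% formic acid. Percent inhibition corrected for enzyme-free background.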

SMILES | inhibition at 10 µM [%]
O=C1NC2(CCO1)CN(C(=O)c1sc3cc(OC(F)(F)F)ccc3c1Cl)C2 [Example 282, 2-((3-chloro-6-(trifluoromethoxy)-1-benzothiophen-2-yl)carbonyl)-7-oxa-2,5-diazaspiro[3.5]nonan-6-one] | 99
Cc1c(C(F)(F)F)ccc2c(Cl)c(C(=O)N3CCC4(COC(=O)N4)C3)sc12 (stereo not drawn) [Example 337, 7-((3-chloro-7-methyl-6-(trifluoromethyl)-1-benzothiophen-2-yl)carbonyl)-3-oxa-1,7-diazaspiro[4.4]nonan-2-one] | 100
O=C1NC2(CO1)CN(C(=O)c1sc3cc(OC(F)(F)F)c(Cl)cc3c1Cl)C2 [Example 298, 2-((3,5-dichloro-6-(trifluoromethoxy)-1-benzothiophen-2-yl)carbonyl)-7-oxa-2,5-diazaspiro[3.4]octan-6-one] | 100
CC1(c2cccc(-c3cc(Cl)c(C(=O)N4CC5(COC(=O)N5)C4)s3)c2)CC1 [Example 281, 2-((3-chloro-5-(3-(1-methylcyclopropyl)phenyl)-2-thienyl)carbonyl)-7-oxa-2,5-diazaspiro[3.4]octan-6-one] | 100
COc1ccc(F)c(-c2ccc(C(=O)N3CC4(CCC(=O)N4)C3)cc2)c1F [Example 78, 2-((2′,6′-difluoro-3′-methoxybiphenyl-4-yl)carbonyl)-2,5-diazaspiro[3.4]octan-6-one] | 85
O=C1CCC2(CN(C(=O)c3sc4cc(-c5c(F)cccc5Cl)ccc4c3Cl)C2)N1 [Example 221, 2-((3-chloro-6-(2-chloro-6-fluorophenyl)-1-benzothiophen-2-yl)carbonyl)-2,5-diazaspiro[3.4]octan-6-one] | 100
O=C1CCC2(CN(C(=O)c3sc4cc(OC(F)(F)F)ccc4c3Cl)C2)N1 [Example 176, 2-((3-chloro-6-(trifluoromethoxy)-1-benzothiophen-2-yl)carbonyl)-2,5-diazaspiro[3.4]octan-6-one] | 99
COc1ccccc1-c1ccc2c(Cl)c(C(=O)N3CC4(CCC(=O)N4)C3)sc2c1 [Example 195, 2-((3-chloro-6-(2-methoxyphenyl)-1-benzothiophen-2-yl)carbonyl)-2,5-diazaspiro[3.4]octan-6-one] | 100
O=C1CCC2(CN(C(=O)c3sc4ccccc4c3Cl)C2)N1 [Example 134, 2-((3-chloro-1-benzothiophen-2-yl)carbonyl)-2,5-diazaspiro[3.4]octan-6-one] | 98
O=C1CCC2(CN(C(=O)c3sc4cc(-c5cc(F)ccc5Cl)ccc4c3Cl)C2)N1 [Example 223, 2-((3-chloro-6-(2-chloro-5-fluorophenyl)-1-benzothiophen-2-yl)carbonyl)-2,5-diaspiro[3.4]octan-6-one] | 100
O=C1CCC2(CN(C(=O)c3sc4cc(-c5ccccc5Cl)ccc4c3Cl)C2)N1 [Example 192, 2-((3-chloro-6-(2-chlorophenyl)-1-benzothiophen-2-yl)carbonyl)-2,5-diazaspiro[3.4]octan-6-one] | 100
O=C1NC2(CCN(C(=O)c3sc4cc(C(F)(F)F)cc(F)c4c3Cl)C2)CO1 (stereo not drawn) [Example 334, 7-((3-chloro-4-fluoro-6-(trifluoromethyl)-1-benzothiophen-2-yl)carbonyl)-3-oxa-1,7-diazaspiro[4.4]nonan-2-one] | 100
O=C1CCC2(CN(C(=O)c3sc4ccc(Cl)cc4c3-c3ccccc3)C2)N1 [Example 143, 2-((5-chloro-3-phenyl-1-benzothiophen-2-yl)carbonyl)-2,5-diazaspiro[3.4]octan-6-one] | 100
O=C1NC2(CO1)CN(C(=O)c1sc3cc(-c4ccccc4F)ccc3c1-c1ccccc1F)C2 [Example 346, 2-((3,6-bis(2-fluorophenyl)-1-benzothiophen-2-yl)carbonyl)-7-oxa-2,5-diazaspiro[3.4]octan-6-one] | 100
O=C1CCC2(CN(C(=O)c3sc(-c4cccc(C5(C(F)(F)F)CC5)c4)cc3Cl)C2)N1 [Example 246, 2-((3-chloro-5-(3-(1-(trifluoromethyl)cyclopropyl)phenyl)-2-thienyl)carbonyl)-2,5-diazaspiro[3.4]octan-6-one] | 100
O=C1CCC2(CN(C(=O)c3sc4cc(-c5cccc(F)c5F)ccc4c3Cl)C2)N1 [Example 215, 2-((3-chloro-6-(2,3-difluorophenyl)-1-benzothiophen-2-yl)carbonyl)-2,5-diazaspiro[3.4]octan-6-one] | 99
Cc1ccc(C)c(-c2ccc(C(=O)N3CC4(CCC(=O)N4)C3)cc2)c1 [Example 90, 2-((2′,5′-dimethylbiphenyl-4-yl)carbonyl)-2,5-diazaspiro[3.4]octan-6-one] | 92
O=C1CCC2(CN(C(=O)c3cc4cc(OC(F)(F)F)ccc4s3)C2)N1 [Example 252, 2-((5-(trifluoromethoxy)-1-benzothiophen-2-yl)carbonyl)-2,5-diazaspiro[3.4]octan-6-one] | 98
CC1(C2CCN(C(=O)N3CC4(CCC(=O)N4)C3)CC2)Cc2ccccc2O1 (stereo not drawn) [Example 2, 2-((4-(2-methyl-2,3-dihydro-1-benzofuran-2-yl)piperidin-1-yl)carbonyl)-2,5-diazaspiro[3.4]octan-6-one] | 100
O=C1CCC2(CN(C(=O)N3CCC(Cc4ccc(F)cc4F)CC3)C2)N1 [Example 98, 2-((4-(2,4-difluorobenzyl)piperidin-1-yl)carbonyl)-2,5-diazaspiro[3.4]octan-6-one] | 101
O=C1CCC2(CN(C(=O)N3CC(COc4ccc(C(F)(F)F)cc4Cl)C3)C2)N1 [Example 17, 2-((3-((2-chloro-4-(trifluoromethyl)phenoxy)methyl)azetidin-1-yl)carbonyl)-2,5-diazaspiro[3.4]octan-6-one] | 98

More lines, now with the values ahead:

inhibition at 10 µM [%] | SMILES
101 | Cc1ccc(F)cc1-c1ccc2c(Cl)c(C(=O)N3CC4(CCC(=O)N4)C3)sc2c1 [Example 205, 2-((3-chloro-6-(5-fluoro-2-methylphenyl)-1-benzothiophen-2-yl)carbonyl)-2,5-diazaspiro[3.4]octan-6-one]
100 | Cc1ccsc1-c1ccc2c(Cl)c(C(=O)N3CC4(CCC(=O)N4)C3)sc2c1 [Example 235, 2-((3-chloro-6-(3-methyl-2-thienyl)-1-benozthiophen-2-yl)carbonyl)-2,5-diazaspiro[3.4]octan-6-one]
102 | O=C1CCC2(CN(C(=O)N3CC(COc4ccc5c(c4)CCC5)C3)C2)N1 [Example 19, 2-((3-((2,3-dihydro-1H-inden-5-yloxy)methyl)azetidin-1-yl)carbonyl)-2,5-diazaspiro[3.4]octan-6-one]
93 | O=C1CCC2(CN(C(=O)c3sc(-c4ccc(OC(F)(F)F)cc4)cc3Cl)C2)N1 [Example 249, 2-((3-chloro-5-(4-(trifluoromethoxy)phenyl)-2-thienyl)carbonyl)-2,5-diazaspiro[3.4]octan-6-one]
99 | O=C1NC2(CCO1)CN(C(=O)c1sc3cccc(OC(F)(F)F)c3c1Cl)C2 [Example 283, 2-((3-chloro-4-(trilfuoromethoxy)-1-benzothiophen-2-yl)carbonyl)-7-oxa-2,5-diazaspiro[3.5]nonan-6-one]
101 | O=C1CCC2(CN(C(=O)c3sc4cc(-c5ccc(F)cc5F)ccc4c3Cl)C2)N1 [Example 39, 2-((3-chloro-6-(2,4-difluorophenyl)-1-benzothiophen-2-yl)carbonyl)-2,5-diazaspiro[3.4]octan-6-one]
100 | O=C1NC2(CO1)CN(C(=O)[C@H]1C[C@@H](OCc3ccc(C(F)(F)F)cc3Cl)C1)C2 [Example 352, 2-((cis-3-((2-chloro-4-(trifluoromethyl)benzyl)oxy)cyclobutyl)carbonyl)-7-oxa-2,5-diazaspiro[3.4]octan-6-one]
100 | O=C1NC2(CO1)CN(C(=O)[C@H]1C[C@H](OCc3ccc(C(F)(F)F)cc3Cl)C1)C2 [Example 350, 2-((trans-3-((2-chloro-4-(trifluoromethyl)benzyl)oxy)cyclobutyl)carbonyl)-7-oxa-2,5-diazaspiro[3.4]octan-6-one]
101 | O=C1NC2(CO1)CN(C(=O)c1sc3cc(OC(F)(F)F)c(F)cc3c1Cl)C2 [Example 280, 2-((3-chloro-5-fluoro-6-(trifluoromethoxy)-1-benzothiophen-2-yl)carbonyl)-7-oxa-2,5-diazaspiro[3.4]octan-6-one]
100 | O=C1NC2(CO1)CN(C(=O)c1ccc(-c3cccc(C4(C(F)(F)F)CC4)c3)c(F)c1)C2 [Example 335, 2-((2-fluoro-3′-(1-(trifluoromethyl)cyclopropyl)biphenyl-4-yl)carbonyl)-7-oxa-2,5-diazaspiro[3.4]octan-6-one]
99 | COc1ccc2c(Cl)c(C(=O)N3CC4(CCC(=O)N4)C3)sc2c1 [Example 139, 2-((3-chloro-6-methoxy-1-benzothiophen-2-yl)carbonyl)-2,5-diazaspiro[3.4]octan-6-one]
99 | O=C1NC2(CO1)CN(C(=O)[C@H]1C[C@@H](OCc3ccc(C(F)(F)F)c(Cl)c3)C1)C2 [Example 359, 2-((cis-3-((3-chloro-4-(trifluoromethyl)benzyl)oxy)cyclobutyl)carbonyl)-7-oxa-2,5-diazaspiro[3.4]octan-6-one]
